Reference: ChEMBL document CHEMBL5512632, “Unlocking the potential of 1,4-naphthoquinones: A comprehensive review of their anticancer properties” (Eur J Med Chem, 2024)

Assays:
[1] = Cytotoxicity against human NCI-H358M cells incubated for 72 hrs by MTT assay; assay type: functional, cell-based
[2] = tested on: OVCAR-8; experiment: Cytotoxicity against human OVCAR-8 cells incubated for 72 hrs by MTT assay; assay type: functional, cell-based; conditions: OVCAR-8, 72 h
[3] = tested on: PC-3M; experiment: Cytotoxicity against human PC-3M cells incubated for 72 hrs by MTT assay; assay type: functional, cell-based
[4] = Antiproliferative activity against human A875 cells assessed as inhibition of cell growth incubated for 24 hrs by MTT reagent based microplate reader assay; assay type: functional; conditions: A875, 24 h
[5] = tested on: SK-MES-1; experiment: Cytotoxicity against human SK-MES-1 cells incubated for 72 hrs by MTT assay; assay type: functional, cell-based; conditions: SK-MES-1, 72 h
[6] = tested on: AGS; experiment: Cytotoxicity against human AGS cells incubated for 72 hrs by MTT assay; assay type: functional, cell-based
[7] = tested on: J82; experiment: Cytotoxicity against human J82 cells incubated for 72 hrs by MTT assay; assay type: functional, cell-based; conditions: J82, 72 h
[8] = tested on: HL-60; experiment: Cytotoxicity against human HL-60 cells incubated for 72 hrs by MTT reagent based spectrophotometric analysis; assay type: functional, cell-based; conditions: HL-60, 72 h
[9] = tested on: PC-3; experiment: Cytotoxicity against human PC-3 cells incubated for 72 hrs by MTT reagent based spectrophotometric analysis; assay type: functional, cell-based; conditions: PC-3, 72 h
[10] = tested on: A2780; experiment: Cytotoxicity against human A2780 cells incubated for 72 hrs by MTT reagent based spectrophotometric analysis; assay type: functional, cell-based; conditions: A2780, 72 h
[11] = tested on: A549; experiment: Cytotoxicity against human A549 cells incubated for 72 hrs by MTT reagent based spectrophotometric analysis; assay type: functional, cell-based; conditions: A549, 72 h
[12] = tested on: HepG2; experiment: Cytotoxicity against human HepG2 cells assessed as inhibition of cell growth incubated upto 72 hrs by MTT assay; assay type: functional, cell-based; conditions: HepG2, 72 h
[13] = tested on: MCF7; experiment: Cytotoxicity against human MCF7 cells assessed as inhibition of cell growth incubated upto 72 hrs by MTT assay; assay type: functional, cell-based; conditions: MCF7, 72 h
[14] = tested on: HT-29; experiment: Cytotoxicity against human HT-29 cells assessed as inhibition of cell growth incubated upto 72 hrs by MTT assay; assay type: functional, cell-based; conditions: HT-29, 72 h
[15] = tested on: SW480; experiment: Cytotoxicity against human SW480 cells assessed as inhibition of cell growth incubated upto 72 hrs by MTT assay; assay type: functional, cell-based; conditions: SW480, 72 h
[16] = tested on: HL-60; experiment: Cytotoxicity against human HL-60 cells assessed as inhibition of cell growth incubated upto 72 hrs by MTT assay; assay type: functional, cell-based; conditions: HL-60, 72 h
[17] = tested on: HepG2; experiment: Cytotoxicity against human HepG2 cells assessed as inhibition of cell growth incubated for 72 hrs by MTT reagent based colorimetric assay; assay type: functional; conditions: HepG2, 72 h
[18] = tested on: RPMI-8226; experiment: Cytotoxicity against human RPMI-8226 cells assessed as inhibition of cell growth incubated for 72 hrs by MTT reagent based colorimetric assay; assay type: functional; conditions: RPMI-8226, 72 h
[19] = tested on: MCF7; experiment: Cytotoxicity against human MCF7 cells assessed as inhibition of cell growth incubated for 72 hrs by MTT reagent based colorimetric assay; assay type: functional; conditions: MCF7, 72 h
[20] = tested on: HL-60; experiment: Cytotoxicity against human HL-60 cells assessed as reduction in cell growth incubated for 48 hrs by MTT assay; assay type: functional, cell-based; conditions: HL-60, 48 h
[21] = tested on: MCF7; experiment: Antiproliferative activity against human MCF7 cells assessed as inhibition of cell growth incubated for 72 hrs by MTS assay; assay type: functional, cell-based; conditions: MCF7, 72 h
[22] = tested on: KATO III stomach cancer cell line; experiment: Antiproliferative activity against human KATO III stomach cancer cell line assessed as inhibition of cell growth incubated for 72 hrs by MTS assay; assay type: functional, cell-based
[23] = tested on: DU-145; experiment: Cytotoxicity against human DU-145 cells incubated for 48 hrs by MTT assay; assay type: functional, cell-based; conditions: DU-145, 48 h
[24] = tested on: MCF7; experiment: Cytotoxicity against human MCF7 cells incubated for 48 hrs by MTT assay; assay type: functional, cell-based; conditions: MCF7, 48 h
[25] = tested on: MCF7; experiment: Cytotoxicity against human MCF7 cells incubated for 72 hrs; assay type: functional, cell-based; conditions: MCF7, 72 h
[26] = tested on: Jurkat; experiment: Cytotoxicity against human Jurkat cells incubated for 48 hrs by MTT reagent based spectrophotometric analysis; assay type: functional, cell-based
[27] = tested on: HeLa; experiment: Cytotoxicity against human HeLa cells incubated for 48 hrs by MTT reagent based spectrophotometric analysis; assay type: functional, cell-based
[28] = Antiproliferative activity against human TT cells assessed as inhibition of cell growth incubated for 72 hrs by WST-1 assay; assay type: functional, cell-based
[29] = tested on: U-937; experiment: Cytotoxicity against human U-937 cells assessed as reduction in cell viability incubated for 72 hrs by resazurin assay; assay type: functional, cell-based; conditions: U-937, 72 h

For `CC1(O)CCC(C#CC2=C(C#CC3CCC(C)(O)CC3)C(=O)c3ccccc3C2=O)CC1` (centres undefined), which IC50 [1] is on record?
The IC50 was 2.98 µM.

And the IC50 [2]?
The IC50 was 2.28 µM.

And the IC50 [3]?
Its IC50 is 4.28 µM.

With `CC(C)=CC[C@@H](OC(=O)CCc1cc2ccccc2[nH]1)C1=CC(=O)c2c(O)ccc(O)c2C1=O` as the compound, how does the IC50 [4] read?
The IC50 was 0.005 µM.

What does the source list for `CCCCCC(=O)C1=C(/C(C(=O)OC)=C(\C)NC(Cc2c[nH]c3ccccc23)C(=O)OC)C(=O)c2ccccc2C1=O` (centres undefined)?
IC50 [5]: 5.5 µM; IC50 [6]: 9.3 µM; IC50 [7]: 4.5 µM

With `O=C1C=C(C(O)C[N+](=O)[O-])C(=O)c2c(O)ccc(O)c21` (centres undefined) as the compound, how does the IC50 [8] read?
The IC50 was 0.14 µM.

What about the IC50 [9] of the same compound?
The IC50 was 0.09 µM.

And the IC50 [10]?
Its IC50 is 0.11 µM.

What about the IC50 [11] of the same compound?
The IC50 was 1.05 µM.

For `CC(C)=CCC/C(C)=C/CC/C(C)=C/CC1=C(O)C(=O)c2ccccc2C1=O`, which IC50 [12] is on record?
Its IC50 is 14 µM.

What about the IC50 [13] of the same compound?
Its IC50 is 47 µM.

And the IC50 [14]?
The IC50 was 1.99 µM.

And the IC50 [15]?
Its IC50 is 2.02 µM.

What about the IC50 [16] of the same compound?
Its IC50 is 5.41 µM.

Which IC50 [17] does the source give for `C[P+](C1=C([O-])C(=O)c2c(F)c(F)c(F)c(F)c2C1=O)(c1ccccc1)c1cc(F)cc(F)c1` (centres undefined) here?
Its IC50 is 7.1 µM.

What about the IC50 [18] of the same compound?
The IC50 was 6.4 µM.

And the IC50 [19]?
The IC50 was 4.6 µM.

For `CC(=O)N[C@H]1[C@H](OC2=C(CC=C(C)C)C(=O)c3ccccc3C2=O)O[C@H](COC(C)=O)[C@@H](OC(C)=O)[C@@H]1OC(C)=O`, which IC50 [20] is on record?
The IC50 was 5.3 µM.

With `CC(C)=CCCc1ccc2c(c1)C(=O)c1c(cnn1CCO)C2=O` as the compound, how does the IC50 [21] read?
Its IC50 is 27.5 µM.

What about the IC50 [22] of the same compound?
Its IC50 is 25.5 µM.

For `COc1cc(N)cc(OC)c1C1=C(C(C)=O)C(=O)c2ccccc2C1=O`, which IC50 [23] is on record?
The IC50 was 12.3 µM.

What about the IC50 [24] of the same compound?
Its IC50 is 21.2 µM.

Which IC50 [25] does the source give for `CCC/C=C/C(=O)C1=C(OC)C(=O)c2cc(OC)c(OC)cc2C1=O` here?
The IC50 was 15 µM.

Which IC50 [26] does the source give for `COc1ccc(NC2=CC(=O)c3cc4c(cc3C2=O)CCCC4(C)C)cc1` here?
The IC50 was 1.4 µM.

What about the IC50 [27] of the same compound?
Its IC50 is 0.01 µM.

Which IC50 [28] does the source give for `CC(C)=CC[C@@H](OC(=O)C=C(C)C)C1=CC(=O)c2c(O)ccc(O)c2C1=O` [DIMETHYLACRYLSHIKONIN] here?
The IC50 was 1.2 µM.

With `CC(C)=CC[C@@H](OC(=O)C(C)C)C1=CC(=O)c2c(O)ccc(O)c2C1=O` [ISOBUTYLSHIKONIN] as the compound, how does the IC50 [29] read?
The IC50 was 0.05 µM.
